Literature values in paper PMC12030314, “Biomarker-Driven Pharmacokinetics and Efficacy of Polymyxin B in Critically Ill Patients with XDR-GN Pneumonia” (Pharmaceuticals, 2025).
Like-named read-outs stand apart in the source and are kept apart here.

Tests used:
[1] = ref Lamer et al. 103, cited from earlier work
[2] = significant individual variation; cited from earlier work
Source text: Colistin (colistin methanesulfonate, CMS) and polymyxin B (PMB) are polymyxins that were approved for clinical use in the 1950s worldwide. Colistin is clinically administered as a prodrug, which requires conversion to the active form in vivo. […] The elimination of colistin is primarily dependent on renal function. Patients with renal impairment are prone to drug accumulation and increased nephrotoxicity risk. PMB is ... || Finally, we cannot rule out the possibility of the potential impacts of other combined drugs on PMB PK and the heterogeneity among the patients in our study. To date, little evidence supports the conclusion that the combined use of other drugs affects PMB PK. Studies have shown that urinary recovery from PMB is low (<5%). […] Further studies examining the nonrenal routes of PMB elimination are warranted, ...

CN[C@H](CC(C)C)C(=O)N[C@H]1C(=O)N[C@@H](CC(N)=O)C(=O)N[C@H]2C(=O)N[C@H]3C(=O)N[C@H](C(=O)N[C@H](C(=O)O)c4cc(O)cc(O)c4-c4cc3ccc4O)[C@H](O)c3ccc(c(Cl)c3)Oc3cc2cc(c3O[C@@H]2O[C@H](CO)[C@@H](O)[C@H](O)[C@H]2O[C@H]2C[C@](C)(N)[C@H](O)[C@H](C)O2)Oc2ccc(cc2Cl)[C@H]1O [vancomycin]
ELF/plasma value ([1]; patients with lung inflammation (ELF albumin ≥ 3.4 mg/mL)): 0.246 [0.192–0.426] | ELF/plasma value ([1]; patients without lung inflammation (ELF albumin <3.4 mg/mL)): 0.14 [0.023–0.285]

colistin methanesulfonate
conversion efficiency of the prodrug to the active form in vivo [2]: 20–25%
